This is an account of results in PMC9785946, “Bioorthogonal Chemistry Approach for the Theranostics of GRPR-Expressing Cancers” (Pharmaceutics, 2022).

Data set [1] has as its system PC3 xenografts-bearing mice. Kind of data set: Biodistribution of 111In-radioconjugates/radiocomplex in PC3 xenografts-bearing mice. In kind it is in vivo, Balb/c-male nude mice. An excerpt: Blood samples were taken by cardiac puncture at sacrifice.
The test system of data set [2] is PC3 cells. The experiment in a line: Cellular uptake, internalization and blocking assays in PC3 cells. As to conditions: 37 °C. In kind it is cell-based, human. On the procedure: The time-dependent accumulation of ^111In-conjugates in PC3 cells was evaluated according to a previously described procedure. Briefly, PC3 cells were incubated at 37 °C for 5 min to 4 h with about 7.4 kBq of the tested radioconjugates. To assess the surface binding, the cells were treated twice with glycine buffer (50 mM glycine-HCl/100 mM NaCl, pH 2.8). Then, the cells were lysed with NaOH 1 M (internalized radioconjugate). The activity in both cell surface-bound and internalized fractions was measured in a γ-counter and reported as a percentage of the total applied radioactivity. The total cellular uptake was calculated by the addition of the activities recovered from the surface binding and internalized fractions. Assays for each time point were performed in quadruplicate, and data were presented as average ± SD of typically three independent experiments.
To assess the specific GRPR-mediated cellular uptake and internalization of radioconjugates (receptor blocking studies), a similar study was performed in which cells were incubated with the [^111In]In-DOTA-Tz-TCO-PEG4-AR for 1, 2 and 4 h, with or without the GRPR agonist Tyr4-Bombesin (0.25 µg/0.5 mL/well).

How the values of data set [3] were obtained:
The octanol–water partition coefficients (Po/w) of the radioconjugates (20 µL, typically 1 to 5 MBq) were determined by the “shake-flask” method, as previously described.

The mark [4] stands for this setting: 15 min p.i., listed as [111In]In-DOTA-Tz.
Where [5] appears, read: 1 h p.i., listed as [111In]In-DOTA-Tz.

Structures are written as SMILES.

For `O=C([O-])CN1CCN(CC(=O)[O-])CCN(CC(=O)NCc2ccc(-c3nncnn3)cc2)CCN(CC(=O)[O-])CC1.[111In+3]` [[^111In]In-DOTA-Tz], in data set [1] (15 min p.i.), the Blood uptake was 2. 7 % I.D./g, the Bone uptake is 0. 8 % I.D./g, the Excretion is 61. % I.D and the Heart uptake is recorded as 0. 9 % I.D./g. Moreover, in data set [1] (15 min p.i.), the Intestine uptake is reported as 0. 4 % I.D./g, the Kidneys uptake is reported as 4. 4 % I.D./g, the Liver uptake was 0. 9 % I.D./g and the Lungs uptake was 1. 4 % I.D./g. Moreover, in data set [1] (15 min p.i.), the Muscle uptake was 0. 8 % I.D./g, the Pancreas uptake was found to be 0.42 ± 0.02 % I.D./g, the Spleen uptake is listed as 0. 45 % I.D./g and the Stomach uptake is 0. 4 % I.D./g. This compound also yielded a Tumor uptake in data set [1] (15 min p.i.) of 2.46 ± 0.6 % I.D./g. In data set [1] (setting [4]), the Pancreas uptake is given as 0. 42 % I.D./g and the Tumor uptake is recorded as 2. 46 % I.D./g. For the same compound, in data set [1] (1 h p.i.), the Blood uptake is recorded as 0. 4 % I.D./g, the Bone uptake is 0. 2 % I.D./g, the Excretion turned out to be 88 % I.D and the Heart uptake is reported as 0. 17 % I.D./g. Also, in data set [1] (1 h p.i.), the Intestine uptake was 0. 29 % I.D./g, the Kidneys uptake was 2. 1 % I.D./g, the Liver uptake was 0. 4 % I.D./g and the Lungs uptake is on record as 0. 38 % I.D./g. Further, in data set [1] (1 h p.i.), the Muscle uptake is reported as 0. 1 % I.D./g, the Pancreas uptake came to 0.09 ± 0.06 % I.D./g, the Spleen uptake is 0. 14 % I.D./g and the Stomach uptake is listed as 0. 17 % I.D./g. The Tumor uptake in data set [1] (1 h p.i.) is recorded as 0.5 ± 0.2 % I.D./g. Further, in data set [1] (setting [5]), the Pancreas uptake is given as 0. 09 % I.D./g and the Tumor uptake was 0. 5 % I.D./g. Moreover, in data set [1] (24 h p.i.), the Blood uptake is 0. 03 % I.D./g, the Bone uptake is listed as 0. 04 % I.D./g, the Excretion worked out at 97. % I.D and the Heart uptake is reported as 0. 02 % I.D./g. Also, in data set [1] (24 h p.i.), the Intestine uptake is listed as 0. 09 % I.D./g, the Kidneys uptake is 0. 87 % I.D./g, the Liver uptake is recorded as 0. 12 % I.D./g and the Lungs uptake is recorded as 0. 07 % I.D./g. In data set [1] (24 h p.i.), the Muscle uptake is 0. 021 % I.D./g, the Pancreas uptake is on record as 0. 03 % I.D./g, the Spleen uptake is recorded as 0. 08 % I.D./g and the Stomach uptake is recorded as 0. 03 % I.D./g. The Tumor uptake in data set [1] (24 h p.i.) is recorded as 0. 13 % I.D./g.
Turning to `CC(C)C[C@H](NC(=O)C[C@H](O)[C@H](CC(C)C)NC(=O)[C@H](Cc1c[nH]cn1)NC(=O)CNC(=O)[C@@H](NC(=O)[C@H](C)NC(=O)[C@H](Cc1c[nH]c2ccccc12)NC(=O)[C@H](CCC(N)=O)NC(=O)[C@@H](Cc1ccccc1)NC(=O)CN1CCC(NC(=O)OC2CCCc3c(cnnc3-c3ccc(CNC(=O)CCC(C(=O)O)N4CCN(CC(=O)O)CCN(CC(=O)O)CCN(CC(=O)O)CC4)cc3)CC2)CC1)C(C)C)C(N)=O` (stereo partly shown) [[^111In]In-DOTAGA-Tz-TCO-Pip-AR, metal not drawn], in data set [2], the “Distribution of cell-associated activity (surface-bound vs internalized)” value was “almost all cell-associated activity corresponded to the membrane-bound fraction”. Also, the Maximum cellular uptake entry in data set [2] (5 min to 4 h) is “around 10 % of the total activity applied per million cells”. The compound further had a logP in data set [3] of -0.9.

By logP is commonly meant a log measure of how a compound divides between an organic and an aqueous phase. Read a low logP as lower lipophilicity.
